“Also recorded” adds a separate entry of the source.
Tests used:
[1] = Pharmacokinetic evaluation in mouse plasma after oral gavage; format: in vivo; conditions: 30 mg/kg oral, based on mean concentrations
Protocol: MJK2134025 and GLPG 1690 were each administered as wet milled aqueous micro-suspensions at a concentration of 3 mg/g in 1% carboxymethyl cellulose and 0.5% Tween 80. Dosing of the formulations was performed at 10.0 g/kg body weight, corresponding to 30 mg/kg body weight. The food intake was measured (FIG. 19).
Prior blood collection, minicollect K3 EDTA vials were opened at room temperature to dry the EDTA in order to avoid blood dilution by the fluid content. Following oral gavage of the test formulations tail vein blood samples were taken at 15 min, 30 min, 1 h, 2 h, 4 h and 8 h. Samples were collected in dried minicollect K3 EDTA plasma vials. The blood samples (20-25 μl) were mixed and immediately cooled to 4° C. Subsequently, the samples were centrifuged at 3000 g for 5-10 min. Supernatants were collected in Eppendorf tubes and frozen and stored at −80° C. until further processing.
MJK2134025 and GLPG1690 were quantified in mouse plasma samples by LC-MS. Frozen mouse plasma samples were thawed on ice. Samples were then precipitated at a ratio of 1:10 (v:v) with 5 ng mL^−1 17:0 LPA in methanol (as an internal standard) in a 1.5 mL Eppendorf tube with microinsert (clear glass, flat bottom, 0.2 mL, 31×6 mm, LABSOLUTE, Germany). The Eppendorf tubes were mixed for 2 minutes at 4° C. and 1600 rpm in a Thermomixer C (Eppendorf, Germany). The Eppendorf tubes were centrifuged at 4° C. and 16.1 rcf for 2 minutes. The supernatant was transferred to HPLC vials for UHPLC-HRMS measurements as described in the following section. Calibration standards of MJK2134025 and GLPG1690 were prepared by adding the reference substances of MJK2134025 and GLPG1690 to blank samples (mouse plasma without substance). The calibration curve was generated at 7 concentrations and with a weighting of 1/×. The following concentrations were used for the stock solutions: 0.1, 0.5, 1, 2.5, 10, 50 and 200 μg·mL^−1 in methanol. To prepare the 200 μg·mL^−1 stock solution, 0.04 mL of 1 mg·mL^−1 MJK2134025 and 0.04 mL of 1 mg·mL^−1 GLPG1690 were mixed with 0.12 mL methanol. These stock solutions (5 μL each) were added to the blank plasma (45 μL). The sample was then mixed for 2 minutes at 4° C. and 1600 rpm in Thermomixer C (Eppendorf, Germany). Subsequent sample processing was the same as for the samples quantified. All quantifications should be considered as preliminary estimates as stable isotope-labeled reference substances were not available and individual matrix effects cannot be excluded.
All processed plasma samples were analyzed with a Vanquish Horizon UHPLC system (Thermo Fisher Scientific, Bremen, Germany) coupled to a Thermo Scientific QExactive HF-X Orbitrap mass spectrometer (Thermo Fisher Scientific, Bremen, Germany) using a UHPLC column (Luna R Omega 1.6 μm C18 100 Å, 100*2.1 mm). A solution of 5 mM ammonium formate in water containing 0.1% formic acid (eluent A) and a 5 mM solution of ammonium formate in acetonitrile: H2O (95:5, % v:v) containing 0.1% formic acid (eluent B) were used as the mobile phase. A flow rate of 0.3 mL/min was used under the following gradient conditions: 30% eluent B for 1 minute, then linear increase to 98% in 14 minutes, holding 98% of eluent B for 5 minutes, and then decreasing to 30% in 0.5 minutes, followed by isocratic holding for 3.5 minutes. The column temperature was maintained at 25° C. Samples were kept at 4° C., and 8 μL was injected into the UHPLC-MS. The QExactive HF-X Orbitrap was acquired at a resolution of 60000 at full half-width and in both positive and negative modes. The following HESI source parameters were used: capillary voltage of 3.8 kV (negative mode) and 3.5 kV (positive mode), capillary temperature of 320° C., funnel RF level 40, sheath gas pressure 49 (N2>95%), auxiliary gas 10 (N2>95%), auxiliary gas heater temperature 300° C. The automatic gain control (AGC) was set to 10E+6. A scan range of m/z 400 to 600 was selected, and the injection time was set to 200 ms. […]

[2] = Cytotoxicity testing in HeLa cells (methylene blue); format: cell-based; conditions: human, HeLa cells (DSM ACC 57), 72 hours incubation
Protocol: Hela cells (DSM ACC 57) were grown in RPMI 1640 medium supplemented with 10 mL·L^−1 ultraglutamine 1 (CAMBREX 17-605E/U1), 550 μL·L^−1 gentamicin sulfate (50 mg·mL^−1, CAMBREX 17-518Z) and 10% heat inactivated fetal bovine serum (GIBCO Life Technologies 10270-106) at 37° C. in a 5% CO2 atmosphere in high density polyethylene flasks (NUNC 156340). Cells were pre-incubated for 48 hours in the absence of test substances. Subsequently, Hela cells were incubated with serial dilutions of the test substances in 96 well microplates for 72 hours at 37° C. in a humidified atmosphere and 5% CO2. After incubation, the cytolytic effect of compounds was analyzed relative to the negative control (DMSO) using a colorimetric assay (methylene blue). The adherent Hela cells were fixed by glutaraldehyde (MERCK 1.04239.0250) and stained with a 0.05% solution of methylene blue (SERVA 29198) for 15 min. After gentle rinsing, the stain was eluted through addition of 0.2 mL hydrochloric acid (0.33 M) to each well. The absorptions were measured at 660 nm in a SUNRISE microplate reader (TECAN). Four replicates were assayed for each substance. […] All calculations of CC50 values were performed with the software Magellan (TECAN).

[3] = Microsomal stability assay; format: in vitro ADME; conditions: human liver microsomes
Protocol: A microsomal stability assay was performed according to an internal standard procedure. Positive control compound diclofenac and three test items were freshly prepared as sub-dilutions in phosphate buffer (100 mM, pH 7.4) at concentrations of 200 μM and 20 μM, respectively. All incubations were conducted in triplicate in glass screw neck vials (1.5 mL, flat bottom, Macherey-Nagel, Düren, Germany) on a Thermomixer C (Eppendorf, Germany) at 37° C. and 1500 rpm. The incubation mixtures contained 270 μL human liver microsomes (HLM, 1.1 mg·mL^−1, UltraPool HLM 150, Corning B.V. Life Science, Amsterdam, the Netherlands), 270 μL NADP regeneration mix (1 mM NADP, 5 mM glucose-6-phosphate, 5 units·mL^−1 glucose-6-phosphate dehydrogenase and 5 mM MgCl2) and 30 μL phosphate buffer to reach a total volume of 570 μL. Negative controls were performed with heat inactivated (80° C., 30 min) HLM solution. Reactions were initiated by addition of diclofenac or the test item solution (30 μL). Aliquots of 100 μL were taken at 1, 15, 30, 60, and 90 minutes and immediately processed with 100 μL acetonitrile at 4° C. to terminate the reactions, and shaken for 2 minutes at 4° C. with 1600 rpm. The mixed samples were further transferred to 15 mm glass inserts (0.2 mL/6×31 mm, Macherey-Nagel, Düren, Germany) fitted in glass screw neck vials, and centrifuged for 15 min at 4° C. with 4000 rpm. The supernatants were withdrawn and subjected to high resolution mass spectrometry analysis without further treatment.
Samples were analyzed using a Vanquish Horizon UHPLC system (Thermo Fisher Scientific, Bremen, Germany) coupled to a Thermo Scientific QExactive HF-X Orbitrap mass spectrometer (Thermo Fisher Scientific, Bremen, Germany) using a UPLC column (ACQUITY HSS T3, Waters, 1.8 μm particle size, 2.1×50 mm dimensions). The column temperature was maintained at 25° C., and the samples were kept at 4° C. […]
Microsomal stability was determined in analogy to the method as described above, but as single determinations (FIG. 18).

[4] = target: T1, ATX (Homo sapiens, UniProt Q13822); experiment: ATX activity assay (Autotaxin inhibitor test kit, fluorescent ATX substrate); format: biochemical; conditions: for IC50: read-out: IC50 (nM) ATX inhibition
T1 construct: purchased
Protocol: (§1) A solution of 10 mM of the inhibitor to test in DMSO was received. Adding 40.5 μL of this solution to 959.5 μL DMSO gave a concentration of 405 μM. […] For a threefold dilution series 800 μL of 18% DMSO in water were dispensed in twelve 1.5 mL test tubes. 400 μL of the 75.9 μM inhibitor solution were added to the first vial and the solution was vortexed. For every dilution step 400 μL of the corresponding previous dilution step were transferred and mixed by vortexing. The obtained concentrations were 7594 nM, 2531 nM, 844 nM, 281 nM, 94 nM, 31 nM, 10 nM, 3.47 nM, 1.16 nM, 0.39 nM, 0.13 nM, 0.043 nM, 0.014 nM. The eight concentration steps from 31 nM to 0.014 nM were used in the assay.
The assay was performed according to the attached manual of the assay kit. In brief 80 μL reaction buffer containing ATX, 10 μL of the dilution series from the inhibitor and 10 μL fluorescent ATX substrate solution were mixed in a well of a 96 well plate. Cleavage of the substrate by ATX causes increase in fluorescence (excitation 485 nm, emission 528 nm), which is measured by a plate reader in 1 min intervals. The increase of fluorescence between 5 min and 15 min was used to calculate the reaction rate.
The autotaxin reaction was performed in four parallel replicates for the target inhibitor and two replicates for the positive control BrP-LPA. The slope of the increase in fluorescence was calculated by Excel using the “slope” function. The IC50 was calculated by GraphPad Prism using the nolinear regression (curve fit): “log (inhibitor) vs. response with variable slope (four parameters)”.
The autotaxin reaction was performed in three parallel replicates for the target inhibitors MJK2234001 and MJK2234002 and two replicates for MJK2134025 and two replicates for the positive control BrP-LPA. All ATX-tests were performed using the protocol as described above with minor modifications. Those modifications refer to the dilution principle:
as §1, with “The obtained concentrations were 7594 nM, 2531 nM, 844 nM, 281 nM, 94 nM, 31 nM, 10 nM, 3.47 nM, 1.16 nM, 0.39 nM, 0.13 nM, 0.043 nM, 0.014 nM.” left out, “300” for “31”, “0.14” for “0.014”, “assay. During the assay, the final concentration of the inhibitor during the reaction was 1/10th of the added inhibitor solution.” for “assay.”

[5] = mouse model of stroke; cited from earlier work

SMILES | AUC [1] [µg·h/mL] | Cmax [1] [ng/mL] | Tmax [1] [h] | IC50 [4] [nM] | CC50 at 72 h [2] [nM] | microsomal stability / metabolism (in words) [3] | ATX-inhibitory activity (comparison in words) [4] | infarct size and stroke-related motor deficits [5]
CCc1nc2c(C)cc(N3CCN(CC(=O)N4CC(O)C4)CC3)cn2c1N(C)c1nc(-c2ccc(F)cc2)c(C#N)s1 [GLPG1690, reference compound] | 119 | 35200 | 1 | – | – | – | – | –
O=C(CCN1CCN(C(=O)OCc2cc(Cl)cc(Cl)c2)CC1)c1ccc2[nH]c(=O)oc2c1 [PF-8380] | – | – | – | – | – | – | – | significantly reduced

The next lines start with results.

AUC [1] [µg·h/mL] | Cmax [1] [ng/mL] | Tmax [1] [h] | IC50 [4] [nM] | SMILES | CC50 at 72 h [2] [nM] | microsomal stability / metabolism (in words) [3] | ATX-inhibitory activity (comparison in words) [4] | infarct size and stroke-related motor deficits [5]
– | – | – | 2 | O=C(CS(=O)(=O)c1ccc2nn[nH]c2c1)N1CCN(C(=O)OCc2cc(C(F)(F)F)cc(C(F)(F)F)c2)CC1 [MJK2234002, 3,5-bis(trifluoromethyl)benzyl 4-(2-((1H-benzo[d][1,2,3]triazol-6-yl)sulfonyl)acetyl)piperazine-1-carboxylate] | 67800 | almost equally metabolically stable and superior to all other compounds tested | almost equal ATX-inhibitory activity | –
– | – | – | 4 | O=C(CSc1ccc2nn[nH]c2c1)N1CCN(C(=O)OCc2cc(C(F)(F)F)cc(C(F)(F)F)c2)CC1 [MJK2234001, 3,5-bis(trifluoromethyl)benzyl 4-(2-((1H-benzo[d][1,2,3]triazol-6-yl)thio)acetyl)piperazine-1-carboxylate] | 6200 | metabolized at a comparable speed as the experimental drug GLPG 1690 | – | –
303 | 56400 | 2 | 1.8 | O=C(OCc1cc(C(F)(F)F)cc(C(F)(F)F)c1)N1CCN(CCS(=O)(=O)c2ccc3nn[nH]c3c2)CC1 [MJK2134025, 3,5-bis(trifluoromethyl)benzyl 4-(2-((1H-benzo[d][1,2,3]triazol-6-yl)sulfonyl)ethyl)piperazine-1-carboxylate] | 45100 | almost equally metabolically stable and superior to all other compounds tested; also recorded: favorable decay time course | almost equal ATX-inhibitory activity; also recorded: comparable ATX-inhibtion as PF8380 | –

From patent US20240391903A1, “AUTOTAXIN-INHIBITORS” (UNIVERSITAET MUENSTER, priority 2021, published 2024)
